In patent US4346099A, “Carboxy-imidazole derivatives, compositions and use” (Ono Pharmaceutical Co., Ltd., priority 1981, dated 1982):
Structures can show the parent of a compound that is named as a salt.

Molecular target: T1, thromboxane synthetase from rabbit platelet microsomes (Oryctolagus cuniculus, UniProt G1TAZ9)
T1 construct: thromboxane synthetase from rabbit platelet microsomes; from tissue; host or cells: rabbit platelet microsomes
T1 sequence (G1TAZ9 1-530): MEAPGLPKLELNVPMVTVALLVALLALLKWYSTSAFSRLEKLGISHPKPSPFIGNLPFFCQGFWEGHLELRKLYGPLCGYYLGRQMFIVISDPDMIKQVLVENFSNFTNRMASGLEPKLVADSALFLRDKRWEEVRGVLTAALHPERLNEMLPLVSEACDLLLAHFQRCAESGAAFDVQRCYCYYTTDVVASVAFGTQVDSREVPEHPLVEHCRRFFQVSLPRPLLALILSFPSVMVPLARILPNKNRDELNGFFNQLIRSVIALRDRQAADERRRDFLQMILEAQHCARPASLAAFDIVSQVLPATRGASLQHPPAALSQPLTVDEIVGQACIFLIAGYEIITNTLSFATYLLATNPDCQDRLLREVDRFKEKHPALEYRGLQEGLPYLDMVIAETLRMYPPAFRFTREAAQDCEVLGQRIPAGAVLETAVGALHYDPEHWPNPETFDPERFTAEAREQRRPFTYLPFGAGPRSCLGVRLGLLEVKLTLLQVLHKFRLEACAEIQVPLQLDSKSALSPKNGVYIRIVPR
Test: inhibition of thromboxane synthetase from rabbit platelet microsomes (standard laboratory tests)
Assay type: biochemical

IC50 [nM]	Structure (SMILES)
46	O=C(O)C1(CCCCCCn2ccnc2)CCCCC1 [1-(7-carboxy-7,7-pentanoheptyl)imidazole hydrochloride]
38	O=C(O)C(CCCCCCn1ccnc1)c1ccccc1 (centres unmarked) [1-(7-carboxy-7-phenylheptyl)imidazole hydrochloride]
